Measurements: ChEMBL document CHEMBL1142200, “Efficacy of delayed treatment with ST-246 given orally against systemic orthopoxvirus infections in mice” (Antimicrob Agents Chemother, 2007)
The source made the active and inactive calls. The calls are words filed in the database; no cut-off is given here.

Experiments:
Ectromelia virus [1] = assay: Reduction of Ectromelia virus replication in BALB/c mouse liver at 100 mg/kg, po once daily after 4 days; format: functional, organism-based; parameters: dose 100 mg/kg
Ectromelia virus [2] = assay: Reduction of Ectromelia virus replication in BALB/c mouse liver at 100 mg/kg, po once daily after 6 days; format: functional, organism-based; parameters: dose 100 mg/kg
Mus musculus [3] = assay: Effect on mortality of BALB/c mouse inoculated with Cowpox virus at 10 mg/kg after 48 hrs of viral infection, po once daily for 14 days relative to control; format: functional
Mus musculus [4] = assay: Effect on mortality of BALB/c mouse inoculated with Cowpox virus at 30 mg/kg after 72 hrs of viral infection, po once daily for 14 days relative to control; format: functional
Mus musculus [5] = assay: Effect on mortality of A/NCr mouse inoculated with 41 PFU ectromelia virus at 100 mg/kg after 24 hrs of viral infection, po twice daily for 14 days; format: functional
Mus musculus [6] = assay: Effect on mortality of BALB/c mouse inoculated with Vaccinia virus WR at 100 mg/kg after 24 hrs of viral infection, po once daily for 14 days relative to control; format: functional
Ectromelia virus [7] = assay: Reduction of Ectromelia virus replication in BALB/c mouse lung at 100 mg/kg, po once daily after 8 days; format: functional, organism-based; parameters: dose 100 mg/kg
Ectromelia virus [8] = assay: Reduction of Ectromelia virus replication in BALB/c mouse trachea at 100 mg/kg, po once daily after 4 days; format: functional, organism-based; parameters: dose 100 mg/kg
Vaccinia virus [9] = assay: Reduction of Vaccinia virus WR replication in BALB/c mouse liver at 50 mg/kg after 24 hrs of viral infection, po for 9 days; format: functional, organism-based; parameters: dose 50 mg/kg; conditions: Orthopoxvirus vaccinia
Mus musculus [10] = assay: Effect on mortality of A/NCr mouse inoculated with ectromelia virus at 100 mg/kg after 48 hrs of viral infection, po once daily for 10 days relative control; format: functional
Ectromelia virus [11] = assay: Reduction of Ectromelia virus replication in BALB/c mouse trachea at 100 mg/kg, po once daily after 6 days; format: functional, organism-based; parameters: dose 100 mg/kg
Mus musculus [12] = assay: Effect on mortality of BALB/c mouse inoculated with Vaccinia virus WR at 100 mg/kg after 24 hrs of viral infection, po once daily for 5 days relative to control; format: functional
Mus musculus [13] = assay: Effect on mortality of BALB/c mouse inoculated with Cowpox virus BR at 100 mg/kg after 4 hrs of viral infection, po once daily for 7 days relative to control; format: functional
Cowpox virus [14] = assay: Reduction of Cowpox virus BR replication in BALB/c mouse liver at 50 mg/kg after 24 hrs of viral infection, po for 9 days; format: functional, organism-based; parameters: dose 50 mg/kg
Mus musculus [15] = assay: Effect on mortality of BALB/c mouse inoculated with Cowpox virus at 100 mg/kg after 48 hrs of viral infection, po once daily for 14 days relative to control; format: functional
Mus musculus [16] = assay: Effect on mortality of BALB/c mouse inoculated with Cowpox virus BR at 100 mg/kg after 4 hrs of viral infection, po once daily for 10 days relative to control; format: functional
[17] = Selectivity index, ratio of CC50 for HFF cells to EC50 for Vaccinia virus WR infected HFF cells; format: functional
Mus musculus [18] = assay: Effect on mortality of BALB/c mouse inoculated with Cowpox virus BR at 100 mg/kg after 4 hrs of viral infection, po once daily for 14 days relative to control; format: functional
Ectromelia virus [19] = assay: Reduction of Ectromelia virus replication in BALB/c mouse spleen at 100 mg/kg, po once daily after 4 days; format: functional, organism-based; parameters: dose 100 mg/kg
Mus musculus [20] = assay: Effect on mortality of BALB/c mouse inoculated with Cowpox virus BR at 50 mg/kg after 24 hrs of viral infection, po for 9 days; format: functional, organism-based; parameters: dose 50 mg/kg
Ectromelia virus [21] = assay: Reduction of Ectromelia virus replication in BALB/c mouse trachea at 100 mg/kg, po once daily after 8 days; format: functional, organism-based; parameters: dose 100 mg/kg
Ectromelia virus [22] = assay: Reduction of Ectromelia virus replication in BALB/c mouse esophagus at 100 mg/kg, po once daily after 6 days; format: functional, organism-based; parameters: dose 100 mg/kg
[23] = Selectivity index, ratio of CC50 for HFF cells to EC50 for Vaccinia virus Copenhagen infected HFF cells; format: functional
Ectromelia virus [24] = assay: Reduction of Ectromelia virus replication in BALB/c mouse liver at 100 mg/kg, po once daily after 8 days; format: functional, organism-based; parameters: dose 100 mg/kg
Ectromelia virus [25] = assay: Reduction of Ectromelia virus replication in BALB/c mouse spleen at 100 mg/kg, po once daily after 8 days; format: functional, organism-based; parameters: dose 100 mg/kg
Mus musculus [26] = assay: Effect on mortality of BALB/c mouse inoculated with Cowpox virus at 30 mg/kg after 24 hrs of viral infection, po once daily for 14 days relative to control; format: functional
Vaccinia virus [27] = assay: Reduction of Vaccinia virus WR replication in BALB/c mouse kidney at 50 mg/kg after 24 hrs of viral infection, po for 9 days; format: functional, organism-based; parameters: dose 50 mg/kg; conditions: Orthopoxvirus vaccinia
Ectromelia virus [28] = assay: Reduction of Ectromelia virus replication in BALB/c mouse esophagus at 100 mg/kg, po once daily after 8 days; format: functional, organism-based; parameters: dose 100 mg/kg
Mus musculus [29] = assay: Effect on mortality of BALB/c mouse inoculated with Cowpox virus at 100 mg/kg after 72 hrs of viral infection, po once daily for 14 days relative to control; format: functional
Cowpox virus [30] = assay: Reduction of Cowpox virus BR replication in BALB/c mouse spleen at 50 mg/kg after 24 hrs of viral infection, po for 9 days; format: functional, organism-based; parameters: dose 50 mg/kg
Mus musculus [31] = assay: Effect on mortality of BALB/c mouse inoculated with Cowpox virus at 30 mg/kg after 4 hrs of viral infection, po once daily for 14 days relative to control; format: functional
Mus musculus [32] = assay: Effect on mortality of BALB/c mouse inoculated with Cowpox virus at 100 mg/kg after 4 hrs of viral infection, po once daily for 14 days relative to control; format: functional
Mus musculus [33] = assay: Effect on mortality of A/NCr mouse inoculated with ectromelia virus at 100 mg/kg after 0 hrs of viral infection, po once daily for 10 days relative control; format: functional
Ectromelia virus [34] = assay: Reduction of Ectromelia virus replication in BALB/c mouse trachea at 100 mg/kg, po once daily after 14 days; format: functional, organism-based; parameters: dose 100 mg/kg
Mus musculus [35] = assay: Effect on mortality of BALB/c mouse inoculated with Cowpox virus at 10 mg/kg after 24 hrs of viral infection, po once daily for 14 days relative to control; format: functional
Mus musculus [36] = assay: Effect on mortality of BALB/c mouse inoculated with Cowpox virus at 10 mg/kg after 72 hrs of viral infection, po once daily for 14 days relative to control; format: functional
Mus musculus [37] = assay: Effect on mortality of A/NCr mouse inoculated with 4.1 PFU ectromelia virus at 100 mg/kg after 4 hrs of viral infection, po twice daily for 14 days; format: functional
Ectromelia virus [38] = assay: Reduction of Ectromelia virus replication in BALB/c mouse nasal wash at 100 mg/kg, po once daily after 14 days; format: functional, organism-based; parameters: dose 100 mg/kg
Cowpox virus [39] = assay: Reduction of Cowpox virus BR replication in BALB/c mouse kidney at 50 mg/kg after 24 hrs of viral infection, po for 9 days; format: functional, organism-based; parameters: dose 50 mg/kg
Mus musculus [40] = assay: Effect on mortality of A/NCr mouse inoculated with 410 PFU ectromelia virus at 100 mg/kg after 24 hrs of viral infection, po twice daily for 14 days; format: functional
Ectromelia virus [41] = assay: Reduction of Ectromelia virus replication in BALB/c mouse esophagus at 100 mg/kg, po once daily after 4 days; format: functional, organism-based; parameters: dose 100 mg/kg
Mus musculus [42] = assay: Effect on mortality of A/NCr mouse inoculated with 4100 PFU ectromelia virus at 100 mg/kg after 24 hrs of viral infection, po twice daily for 14 days; format: functional

## O=C(NN1C(=O)[C@@H]2[C@@H]3C=C[C@@H]([C@H]4C[C@@H]34)[C@@H]2C1=O)c1ccc(C(F)(F)F)cc1 [TECOVIRIMAT]
Ectromelia virus [1]
  Activity: Active
Ectromelia virus [2]
  Activity: Active
Mus musculus [3]
  Activity: 13%
Mus musculus [4]
  Activity: 40%
Mus musculus [5]
  Activity: 0%
Mus musculus [6]
  Activity: 7%
Ectromelia virus [7]
  Activity: Active
Ectromelia virus [8]
  Activity: Active
Vaccinia virus [9]
  Activity: Active
Mus musculus [10]
  Activity: 0%
Ectromelia virus [11]
  Activity: Active
Mus musculus [12]
  Activity: 7%
Mus musculus [13]
  Activity: 7%
Cowpox virus [14]
  Activity: Active
Mus musculus [15]
  Activity: 7%
Mus musculus [16]
  Activity: 27%
[17]
  Ratio CC50/EC50: >1000
Mus musculus [18]
  Activity: 7%
Ectromelia virus [19]
  Activity: Active
Mus musculus [20]
  Activity: Active
Ectromelia virus [21]
  Activity: Active
Ectromelia virus [22]
  Activity: Active
[23]
  Ratio CC50/EC50: >2000
Ectromelia virus [24]
  Activity: Active
Ectromelia virus [25]
  Activity: Active
Mus musculus [26]
  Activity: 40%
Vaccinia virus [27]
  Activity: Active
Ectromelia virus [28]
  Activity: Active
Mus musculus [29]
  Activity: 40%
Cowpox virus [30]
  Activity: Active
Mus musculus [31]
  Activity: 50%
Mus musculus [32]
  Activity: 11%
Mus musculus [33]
  Activity: 0%
Ectromelia virus [34]
  Activity: Active
Mus musculus [35]
  Activity: 73%
Mus musculus [36]
  Activity: 47%
Mus musculus [37]
  Activity: 0%
Ectromelia virus [38]
  Activity: Active
Cowpox virus [39]
  Activity: Active
Mus musculus [40]
  Activity: 0%
Ectromelia virus [41]
  Activity: Active
Mus musculus [42]
  Activity: 0%
